Experimental data from article PMC9606171, “Synthetic PPAR Agonist DTMB Alleviates Alzheimer’s Disease Pathology by Inhibition of Chronic Microglial Inflammation in 5xFAD Mice” (Neurotherapeutics, 2022).

How the values were obtained:
[1] = biological target: T1, PPARδ (Homo sapiens, UniProt Q03181); assay: Gal4-transactivation luciferase assay in HEK293A cells, PPARδ LBD; assay type: cell-based
T1 construct: pcDNA5-GAL4-PPAR LBD, pG5-luc, and Rluc vector (as control) were transfected into HEK293A cells; expressed in transfected cells; host or cells: HEK293A
T1 sequence (Q03181 211-439 limits assumed): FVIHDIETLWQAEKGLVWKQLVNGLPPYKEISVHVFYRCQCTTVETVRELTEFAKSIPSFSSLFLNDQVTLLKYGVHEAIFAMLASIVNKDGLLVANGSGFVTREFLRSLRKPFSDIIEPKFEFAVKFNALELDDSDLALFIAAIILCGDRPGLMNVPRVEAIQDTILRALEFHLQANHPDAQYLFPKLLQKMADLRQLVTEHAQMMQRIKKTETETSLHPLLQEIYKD
Description: HEK293A cells were transfected with the GAL4-reporter plasmids and pGL4.74 (Promega, Madison, WI, USA) as an internal standard through electroporation using a Neon Transfection System (Invitrogen, Carlsbad, CA, USA). All vector materials were provided by Professor Yuichiro Kanno at Toho University. Cells were treated with DTMB and each positive control compound for 24 h after overnight incubation. Cells were then harvested and resuspended in luciferase lysis buffer (Promega), followed by incubation on ice for 10 min. Cell debris was removed by centrifugation at 20,000 × g at 4 °C for 10 min, and the supernatants were used for luciferase assay. Using a dual-luciferase reporter assay system (Promega), luciferase activities were measured according to the manufacturer’s instructions. Experimental firefly luciferase activities were normalized against those of Renilla luciferase.

[2] = test system: 5xFAD mice; assay: RT-qPCR of magnetically sorted adult microglia; assay type: in vivo; details: adult microglia sorted from 5xFAD mice
Description: (§1) DTMB was synthesized from Daejung Chemicals (Korea) and was dissolved in dimethyl sulfoxide (Sigma Aldrich, St. Louis, MO, USA) for cell-based experiments. To evaluate the effects of DTMB on 5xFAD mice, DTMB (10 mg/kg) and vehicle (1% carboxymethylcellulose and 10% DMSO) were orally administrated to four groups (wild-type, wild-type + DTMB, 5xFAD, and 5xFAD + DTMB) with a 6 day per week for 3 months.
To isolate the adult microglia from DTMB- or vehicle-treated 5xFAD mice brain, magnetic-activated cell sorting (MACs) system was used. Whole brain tissue was dissociated to a single cell level using gentleMACs dissociation kit (Miltenyi Biotech, Bergisch Gladbach, Germany) according to manufacturer’s instruction. To separate the immune cell fraction, 47% percoll gradient was applied to single cell mixture and centrifuged at 2,000 rpm for 10 min. Adult microglia was isolated by LS column after incubating with anti-CD11b MicroBeads (Miltenyi Biotech). Separated adult microglia were used to analyze the expression of genes related to microglia activation and inflammation by performing RT-PCR. Sample sizes were 3 mice per group.

[3] = test system: 5xFAD mice; assay: Immunohistochemistry of Aβ plaques (6e10) in 5xFAD brain; assay type: in vivo; details: 10 mg/kg orally, 3 months, versus transgenic control
Description: as §1
(§2) Mice were perfused with ice-cold phosphate-buffered saline (PBS). Brain tissues were separately used for either molecular analysis or immunohistochemistry. The right hemisphere was fixed with 4% PFA and was transferred to a sucrose solution (30%) for 24 h. The right hemisphere was embedded and frozen in optimal cutting temperature compound on dry ice. Coronal Sections (18 μm thick) that included the hippocampus were cut and prepared on slide glasses. Tissue sections were then permeabilized and blocked using a blocking solution (5% goat serum and 0.2% Triton X-100 in PBS) for 1 h at room temperature. Primary antibody incubation was performed overnight at 4 °C using an anti-6e10 antibody (Biolegend, Japan, 1:100), anti-Iba1 antibody (Wako, Japan, 1:200), and anti-GFAP antibody (Abcam, Cambridge, UK, 1:200). […] Slides were counterstained in Hoechst and then mounted in fluorescence mounting medium (Dako, Denmark). […] Fluorescence was measured by calculating % area and was analyzed using ImageJ. […]

[4] = test system: BV2 microglia cells; assay: ELISA of proinflammatory cytokines, BV2 microglia cells; assay type: cell-based, mouse; details: LPS or pre-aggregated human Aβ1-42, 24 h
Description: We measured cytokine level (TNF-α, IL-1β, and IL-6) in the media of LPS (1 μg/mL) and human Aβ1-42 (5 μg/mL)-treated BV2 microglia cells and primary microglia. Human Aβ1-42 (AnaSpec, Fremont, CA, USA) were pre-aggregated in the incubator for 24 h before the treatment to the cells. BV2 cells and primary microglia cells were seeded on 12-well plates (SPL) at a density of 1 × 10^5 cells/well cultured in 1 mL of complete media. After 12 h, LPS or human Aβ1-42 were treated to cells and were further incubated for 24 h with DTMB. ELISA experiments were conducted by using mouse TNF-α ELISA kit (Invitrogen, BMS607-3TEN), mouse IL-1β ELISA kit (Invitrogen, BMS6002), and mouse IL-6 ELISA kit (Invitrogen, BMS603-2) according to the manufacturer’s instruction.

[5] = Body and tissue weight after 3 months of treatment; assay type: in vivo; details: 3 months treatment; vehicle- vs DTMB-treated mice
Description: as §1

[6] = test system: 5xFAD mice; assay: Y-maze test in 5xFAD mice; assay type: in vivo; details: 10 mg/kg orally, 3 months
Description: as §1
The Y-maze test was conducted using a black y-shaped maze apparatus that has three equal-sized arms (40 × 3 × 12 cm) separated at 120° angles. The mice were placed into the same side of the arm at every trial and freely moved for 8 min under the dim light conditions (50 lx). To measure spatial memory, the number of arm entries to other sides was measured. The percentage of spontaneous alternation was calculated using the following formula: 100×(ActualAlteration/(Total#ofarmentrance-2)) . Sample sizes were 20–25 mice per group.

[7] = test system: 5xFAD mice; assay: Immunohistochemistry of gliosis (Iba-1, GFAP) in 5xFAD brain; assay type: in vivo; details: cortex and hippocampus, versus transgenic controls
Description: as §1, §2

With `COc1ccc(-c2cc(=O)oc3c(C)c(OC(=O)[C@H](Cc4c[nH]c5ccccc45)NC(=O)OC(C)(C)C)ccc23)cc1` [DTMB] the relative luciferase activity ([1]; HEK293A, 24 h, various concentrations) was “increased luciferase activity”, the “transactivation activity (luciferase) compared to positive control” value ([1]; versus positive control) was “lower than the positive controls” and the “levels of microglial activation markers (Iba-1, Trem2, and Cd68)” value [2] was “markedly decreased”. The “levels of proinflammatory cytokines (Tnf-α, Il-6, and Il-1β)” value [2] was “markedly decreased”, the “amount of Aβ aggregates in the hippocampus and cortex” value [3] was “significantly decreased” and the “level of cytokines (TNF-α, IL-1β, IL-6) induced by inflammatory signals” value [4] was “dramatically reduced”. For the same compound, the “body or tissue weight” value [5] was “no changes”, the Y-maze alternation [6] was “improvement with a percentage similar to that of the wild-type mouse group” and the “percentage of areas stained for Iba-1 and GFAP (gliosis of microglia and astrocyte)” value [7] was “decreased”.
